Results on ten compounds are retold here after US10738043B2, “GLS1 inhibitors for treating disease” (Board of Regents, The University of Texas System, priority 2015, dated 2020).

Like-named read-outs stand apart in the source and are kept apart here. A value given as a limit tells only on which side of the number the result lay.

Experiment [1] has as its target T1, GLS1 (purified recombinant human GAC) (Homo sapiens, UniProt O94925).
T1 sequence (O94925 55-598 isoform O94925-3 limits assumed): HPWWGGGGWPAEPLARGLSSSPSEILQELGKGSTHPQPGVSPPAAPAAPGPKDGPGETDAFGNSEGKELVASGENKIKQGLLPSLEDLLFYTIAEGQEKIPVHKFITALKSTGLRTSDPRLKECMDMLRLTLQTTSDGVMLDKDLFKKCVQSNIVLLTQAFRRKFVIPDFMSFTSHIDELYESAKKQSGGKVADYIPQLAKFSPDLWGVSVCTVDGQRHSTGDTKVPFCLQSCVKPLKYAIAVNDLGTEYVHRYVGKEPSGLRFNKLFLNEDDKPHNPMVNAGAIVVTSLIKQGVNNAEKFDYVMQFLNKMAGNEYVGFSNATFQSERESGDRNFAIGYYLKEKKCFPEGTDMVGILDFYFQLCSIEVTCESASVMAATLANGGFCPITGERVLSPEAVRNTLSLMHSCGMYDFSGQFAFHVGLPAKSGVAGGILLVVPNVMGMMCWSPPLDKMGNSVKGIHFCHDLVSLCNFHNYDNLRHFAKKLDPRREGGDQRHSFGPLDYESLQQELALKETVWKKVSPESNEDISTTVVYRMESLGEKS
Kind of experiment: GLS1 Enzymatic Activity Assay (dual-coupled enzymatic assay). It is filed as biochemical. To be noted: 50 mM potassium phosphate, 1 mM glutamine, read-out: IC50 against GLS1. The procedure:
GLS1 Enzymatic Activity Assay
The inhibition of purified recombinant human GAC by varying concentrations of inhibitors is assessed via a dual-coupled enzymatic assay. The glutamate produced by the glutaminase reaction is used by glutamate oxidase to produce α-ketoglutarate, ammonia, and hydrogen peroxide, with this hydrogen peroxide subsequently being used by horseradish peroxidase to produce resorufin in the presence of Amplex UltraRed. The assay buffer consisted of 50 mM HEPES (pH 7.4), 0.25 mM EDTA and 0.1 mM Triton X-100. GAC was incubated with potassium phosphate (10 minutes at room temperature) prior to incubation with inhibitor (10 minutes at room temperature). The final reaction conditions were as follows: 2 nM GAC, 50 mM potassium phosphate, 100 mU/ml glutamate oxidase (Sigma), 1 mM glutamine (Sigma), 100 mU/ml horseradish peroxidase (Sigma), 75 μM Amplex UltraRed (Life Technologies), and 1% (v/v) DMSO. The production of resorufin was monitored on a Perkin Elmer Envision plate reader (excitation 530 nm, emission 590 nm) either in a kinetics or endpoint mode (at 20 minutes). IC50 values were calculated using a four-parameter logistic curve fit.

Another experiment deals with A549 cells. Kind of experiment: Proliferation Assay (A549 viability, Cell Titer Fluor, 72 hours). Format: cell-based. To be noted: read-out: EC50 against A549 cell proliferation. The procedure: A549 cells were routinely maintained in RPMI 1640 media (Gibco catalog number 11875-093) supplemented with 10% dialyzed fetal bovine serum using a humidified incubator (37° C., 5% CO2 and ambient O2). In preparation for the viability assay, cells were inoculated into 384-well black CulturPlates (Perkin Elmer) at a density of 1000 cells/well in a volume of 40 μl. Following a 24-hour incubation at 37° C., 5% CO2 and ambient 02, cells were treated with compound (10 μl) in a final DMSO concentration of 0.5% (v/v). The microplates were then incubated for 72 hours (37° C., 5% CO2 and ambient O2). Cell Titer Fluor (Promega) was subsequently added (10 μl of 6× reagent) and mixed for 15 minutes at room temperature. The plates were then incubated for 30 minutes (37° C., 5% CO2 and ambient O2) and fluorescence was subsequently read on the Perkin Elmer Envision plate reader. EC50 values were calculated using a four-parameter logistic curve fit.

As usually defined, the IC50 is the concentration at which inhibition is half-maximal. `Cc1cc(OC2CC(F)(F)C2)cc(CC(=O)Nc2ccc(C3CCN(c4nnc(C(=O)NCc5ccccn5)s4)C3)nn2)n1` (centres unmarked) [Example 51, 5-(3-(6-(2-(4-(3,3-difluorocyclobutoxy)-6-methylpyridin-2-yl)acetamido)pyridazin-3-yl)pyrrolidin-1-yl)-N-(pyridin-2-ylmethyl)-1,3,4-thiadiazole-2-carboxamide]: the IC50 in experiment [1] is less than 100 nM. In the experiment on A549 cells (Homo sapiens), the EC50 was less than 100 nM.

Turning to `O=C(Cc1ccccn1)Nc1nnc(C2CCN(c3nnc(NC(=O)Cc4cccc(OC(F)(F)F)c4)s3)C2)s1` (centres unmarked) [Example 32, 2-(pyridin-2-yl)-N-(5-(1-(5-(2-(3-(trifluoromethoxy)phenyl)acetamido)-1,3,4-thiadiazol-2-yl)pyrrolidin-3-yl)-1,3,4-thiadiazol-2-yl)acetamide], the half-maximal inhibitory concentration (IC50) in experiment [1] fell in the range of 100 to 500 nM. Besides, the EC50 in the experiment with A549 cells (Homo sapiens) is 500 to 5000 nM.

Turning to `O=C(Cc1cccc(OC(F)(F)F)c1)Nc1ccc(C2CCN(c3nnc(NC(=O)Cc4ccccn4)s3)C2)nn1` (centres unmarked) [Example 21, 2-(pyridin-2-yl)-N-(5-(3-(6-(2-(3-(trifluoromethoxy)phenyl)acetamido)pyridazin-3-yl)pyrrolidin-1-yl)-1,3,4-thiadiazol-2-yl)acetamide], the IC50 in experiment [1] is less than 100 nM. In the experiment with A549 cells (Homo sapiens), the EC50 fell in the range of 100 to 500 nM.

Consider “N-(pyridin-2-ylmethyl)-5-(1-(6-(2-(3-(trifluoromethoxy)phenyl)acetamido)pyridazin-3-yl)pyrrolidin-3-yl)-1,3,4-thiadiazole-2-carboxamide-2,2,2-trifluoroacetate [Example 10]”, for which the IC50 in experiment [1] was less than 100 nM. Besides, in the experiment with A549 cells, the EC50 fell in the range of 100 to 500 nM.

Regarding `CC(=O)Nc1nnc(C2CCCN(c3ccc(NC(=O)Cc4ccccc4)nn3)C2)s1` (centres unmarked) [Example 4, N-(6-(3-(5-Acetamido-1,3,4-thiadiazol-2-yl)piperidin-1-yl)pyridazin-3-yl)-2-phenylacetamide], the IC50 in experiment [1] lay within 100 to 500 nM. Besides, the EC50 in the experiment with A549 cells (Homo sapiens) is 500 to 5000 nM.

On to `O=C(Cc1ccccn1)Nc1ccc([C@@H]2CCN(c3nnc(C(=O)NCc4ccccn4)s3)C2)nn1` [Example 46, (R)-5-(3-(6-(2-(pyridin-2-yl)acetamido)pyridazin-3-yl)pyrrolidin-1-yl)-N-(pyridin-2-ylmethyl)-1,3,4-thiadiazole-2-carboxamide], for which, in experiment [1], the IC50 is less than 100 nM. Moreover, in the experiment on A549 cells (Homo sapiens), the EC50 was less than 100 nM.

As to `O=C(Nc1ccc(N2CCC(n3cc(C(=O)NCc4ccccn4)nn3)C2)nn1)OCc1ccccc1` (centres unmarked) [Example 5, Benzyl (6-(3-(4-((pyridin-2-ylmethyl)carbamoyl)-1H-1,2,3-triazol-1-yl)pyrrolidin-1-yl)pyridazin-3-yl)carbamate], the IC50 in experiment [1] was 500 to 5000 nM. In the experiment on A549 cells (Homo sapiens), the EC50 was 500 to 5000 nM.

Turning to `O=C(Cc1ccccn1)Nc1ccc(C2CCN(c3nnc(C(=O)NCc4cc(C(F)(F)F)ccn4)s3)C2)nn1` (centres unmarked) [Example 38, 5-(3-(6-(2-(pyridin-2-yl)acetamido)pyridazin-3-yl)pyrrolidin-1-yl)-N-((4-(trifluoromethyl)pyridin-2-yl)methyl)-1,3,4-thiadiazole-2-carboxamide], in experiment [1], the IC50 is less than 100 nM. Besides, the EC50 in the experiment with A549 cells (Homo sapiens) was less than 100 nM.

On to `CC(=O)Nc1nnc(C2CCCN(c3ccc(NC(=O)Cc4cccc(OC(F)(F)F)c4)nn3)C2)s1` (centres unmarked) [Example 15, N-(6-(3-(5-acetamido-1,3,4-thiadiazol-2-yl)piperidin-1-yl)pyridazin-3-yl)-2-(3-(trifluoromethoxy)phenyl)acetamide], for which the half-maximal inhibitory concentration (IC50) in experiment [1] is less than 100 nM. The EC50 with A549 cells (Homo sapiens) was 100 to 500 nM.

With `CNC(=O)c1nnc(N2CCC(c3ccc(NC(=O)Cc4cn(-c5cccc(OC(F)(F)F)c5)cn4)nn3)C2)s1` (centres unmarked) [Example 40, N-methyl-5-(3-(6-(2-(1-(3-(trifluoromethoxy)phenyl)-1H-imidazol-4-yl)acetamido)pyridazin-3-yl)pyrrolidin-1-yl)-1,3,4-thiadiazole-2-carboxamide], the half-inhibitory concentration (IC50) in experiment [1] was less than 100 nM. For the same compound, the EC50 in the experiment on A549 cells (Homo sapiens) is less than 100 nM.
